Results on 18 molecules are retold here after ChEMBL document CHEMBL3286197, “Synthesis and structure-activity relationship of cyclopentenone oximes as novel inhibitors of the production of tumor necrosis factor-α” (Bioorg Med Chem Lett, 2014).

What is called IC50 is the point on the concentration scale where inhibition reaches its midpoint. High values mean weaker potency, low ones greater potency.

Test [1] has as its system PBMC. Put plainly: Inhibition of LPS-induced TNF-alpha production in rat PBMC.
The test system of test [2] is PBMC. The test can be described thus: Inhibition of LPS-induced TNF-alpha production in human PBMC. It counts as functional, cell-based.

Regarding `O/N=C1\CCC(C2CCCCC2)=C1c1ccc(F)c(F)c1`, half-maximal inhibition in the test on PBMC [1] (IC50) was put at 340 nM.
In the test on PBMC [1], `O/N=C1\CCC(C2CCCC2)=C1c1ccc(F)cc1` returned an IC50 of 460 nM. The IC50 values of the last two molecules are within 1.5-fold of each other.
For the molecule `O/N=C1\CCC(C2CCCC2)=C1c1ccc(F)c(F)c1`, the results for the IC50 in the test on PBMC [1] and in the test with PBMC [2] were 130 nM and 260 nM, respectively.
Molecule `O/N=C1\CCC(C2CCCC2)=C1c1ccc2c(c1)OCO2` displayed an IC50 in the test with PBMC [1] of 350 nM.
As for `O/N=C1\CCC(C2CCCC2)=C1c1cccc(O)c1`, the midpoint of inhibition with PBMC [1], the IC50, lay at 6220 nM.
Same read-out and setting: the figure for `O/N=C1\CCC(C2CCCC2)=C1c1cccc(C(F)(F)F)c1` is 3070 nM; for `O/N=C1\CCC(C2CCCCC2)=C1c1ccc(F)cc1` it is 1240 nM.
On the same count and under the same terms, under `O/N=C1\CCC(C2CCCCC2)=C1c1ccc(F)c(Cl)c1` stands 420 nM.
With `CCCCCC1=C(c2ccc(F)cc2)/C(=N/O)CC1`, the IC50 in the test on PBMC [1] worked out at 3830 nM; in the test on PBMC [2] it was 4590 nM.
`CCCCCC1=C(c2ccc(F)c(F)c2)/C(=N/O)CC1`: in the test on PBMC [1], the midpoint of inhibition, the IC50, lay at 3650 nM. This counts as single-digit micromolar.
For the molecule `CCCCCC1=C(c2cccnc2)/C(=N/O)CC1`, half-maximal inhibition with PBMC [1] (IC50) required 14100 nM. Against the preceding molecule, the IC50 is about 3.9-fold higher.
The same measure, in the same setting: the figure for `CCCCC1=C(c2ccc(F)cc2)/C(=N/O)CC1` is 7880 nM.
In the case of `CCCCC1=C(c2ccc3c(c2)OCO3)/C(=N/O)CC1`, the IC50 came to 2520 nM in the test on PBMC [1] and 2920 nM in the test with PBMC [2].
Molecule `CCCC1=C(c2ccc(F)cc2)/C(=N/O)CC1` came in with an IC50 in the test on PBMC [1] of 2660 nM.
Still for that read-out and setting: under `CCCC1=C(c2ccc(F)c(F)c2)/C(=N/O)CC1` stands 720 nM; under `CCC1=C(c2ccc(F)c(F)c2)/C(=N/O)CC1`, 4560 nM.
Same read-out and setting: the figure for `CC1=C(c2ccc(F)c(F)c2)/C(=N/O)CC1` is 48700 nM.
As to `COc1ccc(C2CNC(=O)C2)cc1OC1CCCC1` (configuration not stated) [ROLIPRAM], the IC50 in the test with PBMC [1] and with PBMC [2] was 270 nM each time.
